From PMC8048867 (Chemmedchem, 2020)

Assays:
[1] = target: T1, ADAM10 (Homo sapiens, UniProt O14672); experiment: off-target proteinase inhibition ADAM10; type: biochemical; details: read-out: Relative enzyme activity ADAM10
T1 sequence (O14672 214-748): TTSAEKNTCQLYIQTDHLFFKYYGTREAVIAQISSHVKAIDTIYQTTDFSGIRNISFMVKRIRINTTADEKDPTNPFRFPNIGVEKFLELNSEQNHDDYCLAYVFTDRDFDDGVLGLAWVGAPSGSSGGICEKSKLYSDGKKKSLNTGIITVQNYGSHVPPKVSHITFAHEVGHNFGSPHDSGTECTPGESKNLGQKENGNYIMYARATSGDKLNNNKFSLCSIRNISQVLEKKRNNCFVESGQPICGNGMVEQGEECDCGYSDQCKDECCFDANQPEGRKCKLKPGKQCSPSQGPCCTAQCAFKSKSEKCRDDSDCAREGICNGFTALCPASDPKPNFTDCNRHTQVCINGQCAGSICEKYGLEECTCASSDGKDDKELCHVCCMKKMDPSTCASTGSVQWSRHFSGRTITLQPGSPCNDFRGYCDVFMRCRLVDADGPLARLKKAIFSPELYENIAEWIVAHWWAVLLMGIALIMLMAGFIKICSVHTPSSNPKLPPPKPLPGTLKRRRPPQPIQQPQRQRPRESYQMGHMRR

[2] = target: MMP9 (Homo sapiens, UniProt P14780); experiment: off-target proteinase inhibition MMP9; type: biochemical; details: read-out: Relative enzyme activity MMP9
[3] = target: T2, recombinant human meprin α (Homo sapiens, UniProt Q16819); experiment: meprin α inhibition, quenched fluorogenic peptide substrate assay; type: biochemical; details: for SF: selectivity factor (K i app meprin β/K i app meprin α): meprin α over meprin β
T2 sequence (Q16819 66-746): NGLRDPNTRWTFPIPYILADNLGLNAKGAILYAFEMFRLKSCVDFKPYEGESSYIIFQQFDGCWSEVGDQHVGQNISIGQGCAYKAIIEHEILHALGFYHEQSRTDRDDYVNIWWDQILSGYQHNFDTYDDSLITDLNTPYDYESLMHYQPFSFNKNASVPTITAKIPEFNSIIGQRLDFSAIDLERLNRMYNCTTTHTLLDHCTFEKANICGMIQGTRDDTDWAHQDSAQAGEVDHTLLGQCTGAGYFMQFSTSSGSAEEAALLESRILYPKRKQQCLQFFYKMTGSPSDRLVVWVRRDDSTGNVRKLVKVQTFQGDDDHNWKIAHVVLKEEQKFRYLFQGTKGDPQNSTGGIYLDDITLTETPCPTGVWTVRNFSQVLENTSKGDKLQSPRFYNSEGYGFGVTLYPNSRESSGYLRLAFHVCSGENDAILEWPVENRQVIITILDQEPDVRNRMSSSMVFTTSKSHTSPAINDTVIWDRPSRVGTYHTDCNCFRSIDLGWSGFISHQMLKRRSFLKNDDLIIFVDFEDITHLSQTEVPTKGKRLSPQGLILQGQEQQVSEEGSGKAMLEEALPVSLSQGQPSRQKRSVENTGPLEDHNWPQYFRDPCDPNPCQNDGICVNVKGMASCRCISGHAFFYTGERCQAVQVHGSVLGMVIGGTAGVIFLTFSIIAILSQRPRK

[4] = target: T3, mouse ovastacin (Mus musculus, UniProt Q6HA09); experiment: ovastacin inhibition, fluorogenic enzyme activity assay
T3 sequence (Q6HA09 86-435 limits assumed): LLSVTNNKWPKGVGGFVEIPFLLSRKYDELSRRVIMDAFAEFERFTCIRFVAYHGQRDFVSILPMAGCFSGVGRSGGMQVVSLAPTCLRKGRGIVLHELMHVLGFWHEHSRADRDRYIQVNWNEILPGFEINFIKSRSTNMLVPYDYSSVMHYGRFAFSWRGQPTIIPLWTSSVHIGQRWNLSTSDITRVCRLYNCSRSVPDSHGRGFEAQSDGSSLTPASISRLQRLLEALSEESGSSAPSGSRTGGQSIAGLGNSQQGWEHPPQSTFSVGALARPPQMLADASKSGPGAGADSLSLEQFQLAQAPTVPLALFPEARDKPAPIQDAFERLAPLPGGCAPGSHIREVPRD

[5] = target: ADAM17 (Homo sapiens, UniProt P78536); experiment: off-target proteinase inhibition ADAM17; type: biochemical; details: read-out: Relative enzyme activity ADAM17
[6] = target: T4, MMP2 (Homo sapiens, UniProt P08253); experiment: off-target proteinase inhibition MMP2; type: biochemical; details: read-out: Relative enzyme activity MMP2
T4 sequence (P08253 110-660): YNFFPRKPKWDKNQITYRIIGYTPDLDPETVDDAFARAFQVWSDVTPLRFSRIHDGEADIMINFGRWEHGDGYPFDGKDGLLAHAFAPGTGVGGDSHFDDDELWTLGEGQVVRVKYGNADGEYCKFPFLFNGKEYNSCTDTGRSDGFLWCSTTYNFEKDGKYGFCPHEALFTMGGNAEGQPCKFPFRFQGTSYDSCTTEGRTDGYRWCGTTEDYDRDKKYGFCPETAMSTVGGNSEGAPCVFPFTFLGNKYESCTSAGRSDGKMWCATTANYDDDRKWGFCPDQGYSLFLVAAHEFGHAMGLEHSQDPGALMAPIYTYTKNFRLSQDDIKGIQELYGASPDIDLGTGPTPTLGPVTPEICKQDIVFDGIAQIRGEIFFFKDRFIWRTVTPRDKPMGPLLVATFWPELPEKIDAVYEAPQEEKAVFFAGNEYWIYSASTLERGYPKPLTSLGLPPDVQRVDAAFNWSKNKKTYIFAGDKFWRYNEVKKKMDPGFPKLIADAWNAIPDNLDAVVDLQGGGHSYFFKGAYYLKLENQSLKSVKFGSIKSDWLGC

[7] = target: T5, recombinant human meprin β (Homo sapiens, UniProt Q16820); experiment: meprin β inhibition, quenched fluorogenic peptide substrate assay; type: biochemical
T5 sequence (Q16820 62-701): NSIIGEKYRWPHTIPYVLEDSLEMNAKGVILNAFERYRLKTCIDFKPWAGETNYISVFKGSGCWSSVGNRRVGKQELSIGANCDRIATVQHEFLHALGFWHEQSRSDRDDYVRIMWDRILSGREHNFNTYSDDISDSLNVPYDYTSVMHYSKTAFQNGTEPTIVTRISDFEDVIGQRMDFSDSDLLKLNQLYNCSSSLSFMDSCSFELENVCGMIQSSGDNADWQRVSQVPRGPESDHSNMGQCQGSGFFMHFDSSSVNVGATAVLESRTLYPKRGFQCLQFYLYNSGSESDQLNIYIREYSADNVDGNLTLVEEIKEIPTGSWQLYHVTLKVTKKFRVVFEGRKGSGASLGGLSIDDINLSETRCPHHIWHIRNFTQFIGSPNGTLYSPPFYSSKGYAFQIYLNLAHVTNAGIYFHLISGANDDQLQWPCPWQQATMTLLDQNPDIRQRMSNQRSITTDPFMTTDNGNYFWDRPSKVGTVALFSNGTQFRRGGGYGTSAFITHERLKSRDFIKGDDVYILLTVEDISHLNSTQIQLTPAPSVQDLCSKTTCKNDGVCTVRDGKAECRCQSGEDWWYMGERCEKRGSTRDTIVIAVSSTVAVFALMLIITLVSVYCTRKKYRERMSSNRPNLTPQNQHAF

[8] = target: MMP13 (Homo sapiens, UniProt P45452); experiment: off-target proteinase inhibition MMP13; type: biochemical; details: read-out: Relative enzyme activity MMP13

Chain of ADAM17 (P78536 215-824): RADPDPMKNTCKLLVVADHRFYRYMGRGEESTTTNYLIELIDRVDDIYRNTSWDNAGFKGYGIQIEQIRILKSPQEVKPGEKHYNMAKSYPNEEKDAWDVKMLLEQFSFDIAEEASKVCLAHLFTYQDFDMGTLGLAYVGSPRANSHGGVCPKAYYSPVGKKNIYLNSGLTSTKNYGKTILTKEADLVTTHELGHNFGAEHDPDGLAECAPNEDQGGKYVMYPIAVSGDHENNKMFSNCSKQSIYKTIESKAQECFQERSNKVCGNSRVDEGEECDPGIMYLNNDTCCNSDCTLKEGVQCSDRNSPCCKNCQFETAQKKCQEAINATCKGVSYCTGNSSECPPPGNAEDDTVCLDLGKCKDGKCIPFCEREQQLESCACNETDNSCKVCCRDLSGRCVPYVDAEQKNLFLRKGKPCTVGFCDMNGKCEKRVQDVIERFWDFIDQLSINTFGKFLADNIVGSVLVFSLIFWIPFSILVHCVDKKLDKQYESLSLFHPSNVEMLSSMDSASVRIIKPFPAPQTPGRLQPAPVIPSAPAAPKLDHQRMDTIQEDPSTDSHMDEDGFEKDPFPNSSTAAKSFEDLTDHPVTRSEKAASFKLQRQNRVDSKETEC
Chain of MMP9 (P14780 107-707 limits assumed): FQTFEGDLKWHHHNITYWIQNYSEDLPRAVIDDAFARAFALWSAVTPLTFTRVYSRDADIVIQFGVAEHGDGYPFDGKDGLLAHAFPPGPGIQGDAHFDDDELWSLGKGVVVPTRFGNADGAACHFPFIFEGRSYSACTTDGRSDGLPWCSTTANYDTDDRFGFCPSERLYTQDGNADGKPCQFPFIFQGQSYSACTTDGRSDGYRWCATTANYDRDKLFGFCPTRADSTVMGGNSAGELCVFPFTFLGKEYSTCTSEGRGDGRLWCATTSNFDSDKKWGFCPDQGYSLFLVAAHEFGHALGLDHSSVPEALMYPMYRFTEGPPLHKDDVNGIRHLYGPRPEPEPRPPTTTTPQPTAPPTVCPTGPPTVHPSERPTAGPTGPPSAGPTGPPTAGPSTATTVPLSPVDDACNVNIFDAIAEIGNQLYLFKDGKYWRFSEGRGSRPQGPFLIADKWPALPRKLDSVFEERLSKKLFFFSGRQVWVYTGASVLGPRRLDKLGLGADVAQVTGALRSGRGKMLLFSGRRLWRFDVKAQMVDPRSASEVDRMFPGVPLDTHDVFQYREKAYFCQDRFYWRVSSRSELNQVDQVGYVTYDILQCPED

Row | Ki [3] | SF: selectivity factor (K i app meprin β/K i app meprin α) [3] | Ki [4] | SF Meprin α: selectivity factor (K i app ovastacin/K i app meprin α) [4] | SF Meprin β: selectivity factor (K i app ovastacin/K i app meprin β) [4] | Ki [7] | Compound | also measured
1 | 0.069 µM | 16 | 0.093 µM | 1.3 | 0.1 | 1.08 µM | O=C(Cn1c(-c2ccccc2)cc2ccccc21)NO [4 a, 2‐(2‐Phenylindol‐1‐yl)ethanehydroxamic acid] | remaining activity at 10 µM [1]: 89%; remaining activity at 200 µM [1]: 68%; remaining activity at 10 µM [2]: 90%; remaining activity at 200 µM [2]: 53%; remaining activity at 10 µM [5]: 88%; remaining activity at 200 µM [5]: 56%; remaining activity at 10 µM [6]: 85%; remaining activity at 200 µM [6]: 41%; remaining activity at 10 µM [8]: 77%; remaining activity at 200 µM [8]: 54%
2 | 1.03 µM | 27 | 9.8 µM | 9.5 | 0.4 | 27.9 µM | O=C(CCn1c(-c2ccccc2)nc2ccccc21)NO [4 d, 3‐(2‐Phenylbenzimidazol‐1‐yl)propanehydroxamic acid] | 
3 | 0.406 µM | 38 | 1.1 µM | 3 | 0.1 | 15.4 µM | O=C(CCn1nc(-c2ccccc2)cc1-c1ccccc1)NO [3 b, 3‐(3,5‐Diphenylpyrazol‐1‐yl)propanehydroxamic acid] | 
4 | 1.48 µM | 3 |  |  |  | 4.17 µM | O=C(Cn1c(-c2ccccc2)nc2ncccc21)NO [4 g, 2‐(2‐Phenylimidazo[4,5‐b]pyridin‐1‐yl)ethane‐hydroxamic acid] | 
5 | 0.008 µM | 27 |  |  |  | 0.219 µM | CCCCC[C@H](CC(=O)NO)C(=O)N[C@H](C(=O)N1CCC[C@H]1CO)C(C)C [Actinonin, reference compound] | 
6 | 0.736 µM | 20 |  |  |  | 15 µM | O=C(CCn1c(-c2ccccc2)ccc1-c1ccccc1)NO [2 b, 3‐(2,5‐Diphenylpyrrol‐1‐yl)propanehydroxamic acid] | 
7 | 0.414 µM | 41 | 1.3 µM | 3.1 | 0.1 | 17 µM | O=C(CCn1c(-c2ccccc2)cc2ccccc21)NO [4 b, 3‐(2‐Phenylindol‐1‐yl)propanehydroxamic acid] | 
8 | 0.256 µM | 41 | 1.05 µM | 4 | 0.1 | 10.4 µM | O=C(Cn1nc(-c2ccccc2)cc1-c1ccccc1)NO [3 a, 2‐(3,5‐Diphenylpyrazol‐1‐yl)ethanehydroxamic acid] | 
9 | 0.306 µM | 138 | 31.8 µM | 104 | 0.8 | 42.3 µM | O=C(CCn1c(-c2ccccc2)nnc1-c1ccccc1)NO [2 h, 3‐(3,5‐Diphenyl‐1,2,4‐triazol‐4‐yl)propanehydroxamic acid] | 
10 | 0.009 µM | 161 |  |  |  | 1.45 µM | O=C(Cc1c(-c2ccccc2)nnn1-c1ccccc1)NO [2 j, 2‐(3,5‐Diphenyl‐1,2,3‐triazol‐4‐yl)ethanehydroxamic acid] | 
11 | 0.002 µM | 222 |  |  |  | 0.443 µM | O=C(Cc1c(-c2ccccc2)ncn1-c1ccccc1)NO [2 i, 2‐(3,5‐Diphenylimidazol‐4‐yl)ethanehydroxamic acid] | 
12 | 0.273 µM | 12 |  |  |  | 3.36 µM | O=C(Cc1c2ccccc2nn1-c1ccccc1)NO [4 h, 2‐(2‐Phenylindazol‐3‐yl)ethanehydroxamic acid] | 
13 | 0.02 µM | 216 |  |  |  | 4.31 µM | O=C(Cn1c(-c2ccccc2)ccc1-c1ccccc1)NO [2 a, 2‐(2,5‐Diphenylpyrrol‐1‐yl)ethanehydroxamic acid] | remaining activity at 10 µM [1]: 82%; remaining activity at 200 µM [1]: 29%; remaining activity at 10 µM [2]: 92%; remaining activity at 200 µM [2]: 1%; fold improvement in potency against meprin α compared to amine 1 d ([3]; compared to 1 d): ~400 fold; remaining activity at 10 µM [5]: 82%; remaining activity at 200 µM [5]: 25%; remaining activity at 10 µM [6]: 83%; remaining activity at 200 µM [6]: 1%; remaining activity at 10 µM [8]: 79%; remaining activity at 200 µM [8]: 5%
14 | 0.082 µM | 14 |  |  |  | 1.18 µM | O=C(Cc1c(-c2ccccc2)[nH]c2ccccc12)NO [4 e, 2‐(2‐Phenyl‐1H‐indol‐3‐yl)ethanehydroxamic acid] | 
15 | 0.262 µM | 17 |  |  |  | 4.56 µM | O=C(Cn1c(-c2ccccc2)nc2cccnc21)NO [4 f, 2‐(2‐Phenylimidazo[4,5‐b]pyridin‐3‐yl)ethanehydroxamic acid] | 
